Experiments:
[1] = Hepatocyte (Hep) intrinsic clearance, rat; type: in vitro ADME; conditions: hepatocytes
[2] = Hepatocyte (Hep) intrinsic clearance, monkey; type: in vitro ADME; conditions: hepatocytes
adenosine A1 receptor [3] = target: T1, adenosine A1 receptor (Homo sapiens (Human), UniProt P30542); experiment: A1 cAMP IC50 assay (Table 1); type: biochemical
[4] = Liver microsome (LM) intrinsic clearance, human; type: in vitro ADME
CYP3A4 = CYP3A4 (Homo sapiens (Human), UniProt P08684); experiment: CYP450 inhibition at 10 μM, CYP3A4; type: in vitro ADME; conditions: human, 10 μM, read-out: CYP 450 % INH @ 10 μM
CYP3A4, sequence (P08684 whole entry): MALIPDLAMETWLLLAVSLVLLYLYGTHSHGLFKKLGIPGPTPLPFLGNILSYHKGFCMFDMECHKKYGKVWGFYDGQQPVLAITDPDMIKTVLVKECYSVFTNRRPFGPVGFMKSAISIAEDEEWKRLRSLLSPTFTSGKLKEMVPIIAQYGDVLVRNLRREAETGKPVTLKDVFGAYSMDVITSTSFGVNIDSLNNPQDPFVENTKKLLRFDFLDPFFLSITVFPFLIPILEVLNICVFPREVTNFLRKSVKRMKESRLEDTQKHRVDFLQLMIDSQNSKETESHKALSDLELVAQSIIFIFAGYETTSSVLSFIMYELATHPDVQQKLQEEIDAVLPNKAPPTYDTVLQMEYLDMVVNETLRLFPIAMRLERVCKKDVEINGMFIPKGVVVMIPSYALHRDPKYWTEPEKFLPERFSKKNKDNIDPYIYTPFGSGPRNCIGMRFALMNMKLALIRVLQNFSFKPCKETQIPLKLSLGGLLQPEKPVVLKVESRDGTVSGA

adenosine A3 receptor [5] = target: T2, adenosine A3 receptor (Homo sapiens (Human), UniProt P0DMS8); experiment: A3 cAMP IC50 assay (Table 1); type: biochemical
T2 sequence (P0DMS8 whole entry): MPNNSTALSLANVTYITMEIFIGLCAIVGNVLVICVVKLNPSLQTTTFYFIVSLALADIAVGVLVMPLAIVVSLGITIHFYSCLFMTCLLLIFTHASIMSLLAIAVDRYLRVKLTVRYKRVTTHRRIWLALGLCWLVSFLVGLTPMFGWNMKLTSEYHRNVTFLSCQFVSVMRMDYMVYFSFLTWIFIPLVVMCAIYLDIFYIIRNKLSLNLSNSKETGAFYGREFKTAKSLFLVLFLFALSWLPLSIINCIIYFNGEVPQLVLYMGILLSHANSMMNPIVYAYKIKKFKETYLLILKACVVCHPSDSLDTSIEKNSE

CYP2D6 = CYP2D6 (Homo sapiens (Human), UniProt P10635); experiment: CYP450 inhibition at 10 μM, CYP2D6; type: in vitro ADME; conditions: read-out: CYP 450 % INH @ 10 μM
CYP2D6, sequence (P10635 whole entry): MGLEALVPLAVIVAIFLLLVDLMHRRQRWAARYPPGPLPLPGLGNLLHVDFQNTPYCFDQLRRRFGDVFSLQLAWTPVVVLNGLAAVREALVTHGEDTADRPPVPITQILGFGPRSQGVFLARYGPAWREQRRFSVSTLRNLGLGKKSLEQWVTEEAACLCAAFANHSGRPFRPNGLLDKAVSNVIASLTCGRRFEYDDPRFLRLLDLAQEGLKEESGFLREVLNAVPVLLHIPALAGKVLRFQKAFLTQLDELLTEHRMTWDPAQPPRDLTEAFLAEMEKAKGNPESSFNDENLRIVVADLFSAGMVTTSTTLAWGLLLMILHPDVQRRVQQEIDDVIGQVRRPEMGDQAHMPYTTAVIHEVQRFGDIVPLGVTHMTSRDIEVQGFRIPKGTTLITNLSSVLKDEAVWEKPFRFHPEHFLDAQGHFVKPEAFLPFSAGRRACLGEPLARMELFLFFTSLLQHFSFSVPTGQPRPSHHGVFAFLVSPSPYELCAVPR

adenosine A2B receptor = adenosine A2B receptor (Homo sapiens (Human), UniProt P29275); experiment: Adenosine receptor activity assay (Table 1), A2B activity; type: biochemical; conditions: for IC50: read-out: Ave A2B cAMP IC50
adenosine A2B receptor, sequence (P29275 whole entry): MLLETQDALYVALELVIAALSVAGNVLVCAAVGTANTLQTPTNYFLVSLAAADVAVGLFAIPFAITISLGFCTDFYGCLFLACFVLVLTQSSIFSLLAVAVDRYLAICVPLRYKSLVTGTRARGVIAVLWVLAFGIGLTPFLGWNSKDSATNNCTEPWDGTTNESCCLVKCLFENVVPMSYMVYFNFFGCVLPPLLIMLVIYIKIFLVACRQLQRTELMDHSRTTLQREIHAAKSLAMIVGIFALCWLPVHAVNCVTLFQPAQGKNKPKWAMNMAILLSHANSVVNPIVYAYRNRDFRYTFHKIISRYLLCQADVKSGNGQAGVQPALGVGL

[6] = Hepatocyte (Hep) intrinsic clearance, dog; type: in vitro ADME; conditions: hepatocytes
[7] = Hepatocyte (Hep) intrinsic clearance, human; type: in vitro ADME; conditions: hepatocytes
adenosine A2A receptor = adenosine A2A receptor (Homo sapiens (Human), UniProt P29274); experiment: Adenosine receptor activity assay (Table 1), A2A activity; type: biochemical; conditions: read-out: Ave A2A cAMP IC50
adenosine A2A receptor, sequence (P29274 whole entry): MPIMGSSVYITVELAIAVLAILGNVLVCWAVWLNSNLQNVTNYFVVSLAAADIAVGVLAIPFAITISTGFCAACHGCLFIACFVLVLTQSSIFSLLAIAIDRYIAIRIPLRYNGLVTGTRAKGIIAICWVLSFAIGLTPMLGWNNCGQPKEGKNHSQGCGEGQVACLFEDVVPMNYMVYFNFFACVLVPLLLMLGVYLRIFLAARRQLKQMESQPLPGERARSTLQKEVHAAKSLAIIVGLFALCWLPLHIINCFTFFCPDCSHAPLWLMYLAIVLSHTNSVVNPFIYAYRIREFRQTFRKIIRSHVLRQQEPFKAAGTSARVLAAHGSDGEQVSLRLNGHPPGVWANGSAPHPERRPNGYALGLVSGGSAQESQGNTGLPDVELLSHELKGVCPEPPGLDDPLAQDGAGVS

[8] = Liver microsome (LM) intrinsic clearance, rat; type: in vitro ADME
adenosine A3 receptor [9] = target: T2, adenosine A3 receptor; experiment: Adenosine receptor activity assay (Table 1), A3 cAMP; type: cell-based
adenosine A1 receptor [10] = target: T1, adenosine A1 receptor; experiment: Adenosine receptor activity assay (Table 1), A1 cAMP; type: cell-based
[11] = Liver microsome intrinsic clearance, human; type: in vitro ADME
[12] = Liver microsome intrinsic clearance, rat; type: in vitro ADME
adenosine A1 receptor [13] = target: T1, adenosine A1 receptor; experiment: Adenosine receptor activity assay (Table 1), A1 cAMP; type: biochemical
Method: (§1) Table 1. Compounds (e.g., Adenosine Receptor modulators) and activity assay results. The legend is as follows: A=<10 nM; B=10-50 nM; C=50-100 nM; D=100-500; and E=>500 nM. The ratio corresponds to the A2A activity to the A2B activity; or A2A/A2B.

[14] = Liver microsome intrinsic clearance (LM CLint), human; type: in vitro ADME
[15] = Liver microsome intrinsic clearance (LM CLint), rat; type: in vitro ADME
adenosine A3 receptor [16] = target: T2, adenosine A3 receptor; experiment: Adenosine receptor activity assay (Table 1), A3 cAMP; type: biochemical
Method: as §1

[17] = A2A activity to A2B activity (A2A/A2B)
[18] = A2A activity to the A2B activity, A2A/A2B

T1 sequence (P30542 whole entry): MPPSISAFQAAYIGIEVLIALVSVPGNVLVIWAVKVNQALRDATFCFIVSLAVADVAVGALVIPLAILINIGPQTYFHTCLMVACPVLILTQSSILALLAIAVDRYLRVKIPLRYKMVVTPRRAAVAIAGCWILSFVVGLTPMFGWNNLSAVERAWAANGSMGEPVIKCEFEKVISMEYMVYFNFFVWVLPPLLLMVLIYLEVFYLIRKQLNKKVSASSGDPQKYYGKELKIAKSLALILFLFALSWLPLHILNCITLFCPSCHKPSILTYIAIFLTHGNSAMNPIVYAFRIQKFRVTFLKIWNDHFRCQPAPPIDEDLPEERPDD

Row | Structure (SMILES) | Ratio (adenosine A2B receptor; [17]) | IC50 (adenosine A2B receptor) | IC50 (adenosine A2A receptor) | IC50 (adenosine A3 receptor [9]) | IC50 (adenosine A1 receptor [10]) | LM CLint [11] | LM CLint [12] | IC50 (adenosine A1 receptor [13]) | LM CLint [14] | Ratio (adenosine A2B receptor; [18]) | LM CLint [15] | IC50 (adenosine A3 receptor [16]) | other results
1 | C[C@H](Nc1nc(C(=O)N2CCCC2)c2sccc2n1)c1ccccn1 [Example Z10, (S)-(2-((1-(Pyridin-2-yl)ethyl)amino)thieno[3,2-d]pyrimidin-4-yl)(pyrrolidin-1-yl)methanone] | 7.99 | < 10 nM | 50 to 100 nM | – | – | – | – | – | – | – | – | – | hepatocyte CLint [1]: 26.7 µL/min/1e6 cells; hepatocyte CLint [2]: 17.9 µL/min/1e6 cells; IC50 (adenosine A1 receptor [3]): > 500 nM; LM CLint [4]: 16.29 μL/min/mg/protein; inhibition at 10 µM (CYP3A4): 0%; IC50 (adenosine A3 receptor [5]): > 500 nM; inhibition at 10 µM (CYP2D6): 8%; hepatocyte CLint [6]: 46.1 µL/min/1e6 cells; hepatocyte CLint [7]: 6.53 µL/min/1e6 cells; LM CLint [8]: 15.05 μL/min/mg/protein
2 | C[C@H](Nc1nc(C(=O)N2CC[C@H](O)C2)c2sccc2n1)c1cccnc1 [Example Z28, ((S)-3-Hydroxypyrrolidin-1-yl)(2-(((S)-1-(pyridin-3-yl)ethyl)amino)thieno[3,2-d]pyrimidin-4-yl)methanone] | 39.41 | 50 to 100 nM | > 500 nM | – | – | – | – | – | – | – | – | – | hepatocyte CLint [1]: 34.7 µL/min/1e6 cells; hepatocyte CLint [2]: 0.62 µL/min/1e6 cells; IC50 (adenosine A1 receptor [3]): > 500 nM; LM CLint [4]: 4.55 μL/min/mg/protein; inhibition at 10 µM (CYP3A4): 35%; IC50 (adenosine A3 receptor [5]): > 500 nM; inhibition at 10 µM (CYP2D6): 11%; hepatocyte CLint [6]: 2.59 µL/min/1e6 cells; hepatocyte CLint [7]: 3.48 µL/min/1e6 cells; LM CLint [8]: 9.33 μL/min/mg/protein
3 | C[C@H](Nc1nc(C(=O)N2CC[C@@H](F)C2)c2sccc2n1)c1ccccn1 [Example Z52, ((R)-3-Fluoropyrrolidin-1-yl)(2-(((S)-1-(pyridin-2-yl)ethyl)amino)thieno[3,2-d]pyrimidin-4-yl)methanone] | 5.74 | < 10 nM | 10 to 50 nM | – | – | – | – | – | – | – | – | – | hepatocyte CLint [1]: 45.3 µL/min/1e6 cells; hepatocyte CLint [2]: 18.7 µL/min/1e6 cells; IC50 (adenosine A1 receptor [3]): > 500 nM; LM CLint [4]: 11.20 μL/min/mg/protein; inhibition at 10 µM (CYP3A4): 7%; IC50 (adenosine A3 receptor [5]): > 500 nM; inhibition at 10 µM (CYP2D6): 0%; hepatocyte CLint [6]: 41.7 µL/min/1e6 cells; hepatocyte CLint [7]: 12.7 µL/min/1e6 cells; LM CLint [8]: 11.87 μL/min/mg/protein
4 | C[C@H](Nc1nc(C(=O)N2CC[C@@H](O)C2)c2sccc2n1)c1ccccn1 [Example Z59, ((R)-3-Hydroxypyrrolidin-1-yl)(2-(((S)-1-(pyridin-2-yl)ethyl)amino)thieno[3,2-d]pyrimidin-4-yl)methanone] | 12.76 | 10 to 50 nM | 100 to 500 nM | – | – | – | – | – | – | – | – | – | hepatocyte CLint [1]: 8.7 µL/min/1e6 cells; IC50 (adenosine A1 receptor [3]): > 500 nM; LM CLint [4]: 4.87 μL/min/mg/protein; inhibition at 10 µM (CYP3A4): 0%; IC50 (adenosine A3 receptor [5]): > 500 nM; inhibition at 10 µM (CYP2D6): 15%; hepatocyte CLint [6]: 4.19 µL/min/1e6 cells; hepatocyte CLint [7]: 1.5 µL/min/1e6 cells; LM CLint [8]: 4.86 μL/min/mg/protein
5 | CO[C@@H]1CCN(C(=O)c2nc(N[C@@H](C)c3ccccn3)nc3cc(C)sc23)C1 [Example Z312, ((R)-3-Methoxypyrrolidin-1-yl)(6-methyl-2-(((S)-1-(pyridin-2-yl)ethyl)amino)thieno[3,2-d]pyrimidin-4-yl)methanone] | 3.05 | < 10 nM | 10 to 50 nM | 50 to 100 nM | > 500 nM | 10.94 μL/min/mg/protein | 57.04 μL/min/mg/protein | – | – | – | – | – | –
6 | Cc1cc2nc(N[C@@H](C)c3cccnc3)nc(C(=O)N3CC[C@@H](CO)C3)c2s1 [Example Z335, ((R)-3-(Hydroxymethyl)pyrrolidin-1-yl)(6-methyl-2-(((S)-1-(pyridin-3-yl)ethyl)amino)thieno[3,2-d]pyrimidin-4-yl)methanone] | 200.00 | < 10 nM | > 500 nM | > 500 nM | > 500 nM | 10.36 μL/min/mg/protein | 33.31 μL/min/mg/protein | – | – | – | – | – | –
7 | C[C@H](Nc1nc(C(=O)N2CC[C@@H](O)C2)c2sc(C(F)(F)F)cc2n1)c1cccnc1 [Example Z337, ((R)-3-Hydroxypyrrolidin-1-yl)(2-(((S)-1-(pyridin-3-yl)ethyl)amino)-6-(trifluoromethyl)thieno[3,2-d]pyrimidin-4-yl)methanone] | 120.82 | 10 to 50 nM | > 500 nM | > 500 nM | > 500 nM | 20.68 μL/min/mg/protein | 13.69 μL/min/mg/protein | – | – | – | – | – | –
8 | C[C@H](Nc1nc(C(=O)NCCc2ccc(O)cc2)c2sccc2n1)c1cncc(F)c1 [Example Z340, (S)-2-((1-(5-Fluoropyridin-3-yl)ethyl)amino)-N-(4-hydroxyphenethyl)thieno[3,2-d]pyrimidine-4-carboxamide] | 95.47 | < 10 nM | 100 to 500 nM | > 500 nM | > 500 nM | 258.52 μL/min/mg/protein | 504.21 μL/min/mg/protein | – | – | – | – | – | –
9 | C[C@H](Nc1nc(C(=O)N2CC[C@@H](O)C2)c2sc(C(F)(F)F)cc2n1)c1cncc(F)c1 [Example Z391, (2-(((S)-1-(5-Fluoropyridin-3-yl)ethyl)amino)-6-(trifluoromethyl)thieno[3,2-d]pyrimidin-4-yl)((R)-3-hydroxypyrrolidin-1-yl)methanone] | 288.73 | < 10 nM | > 500 nM | > 500 nM | > 500 nM | 12.73 μL/min/mg/protein | 7.73 μL/min/mg/protein | – | – | – | – | – | –
10 | Cc1cc2nc(N[C@@H](C)c3cncc(F)c3)nc(C(=O)N3CC(N)C3)c2s1 [Example Z430, (S)-(3-Aminoazetidin-1-yl)(2-((1-(5-fluoropyridin-3-yl)ethyl)amino)-6-methylthieno[3,2-d]pyrimidin-4-yl)methanone] | – | < 10 nM | > 500 nM | – | – | – | – | > 500 nM | 5.77 μL/min/mg/protein | 177.08 | 4.83 μL/min/mg/protein | > 500 nM | –
11 | COc1cccc(CNC(=O)c2nc(N[C@@H](C)c3ccccn3)nc3c(C)csc23)n1 [Example Z450, (S)—N-((6-Methoxypyridin-2-yl)methyl)-7-methyl-2-((1-(pyridin-2-yl)ethyl)amino)thieno[3,2-d]pyrimidine-4-carboxamide] | – | 10 to 50 nM | 10 to 50 nM | – | – | – | – | > 500 nM | 82.93 μL/min/mg/protein | 0.64 | 314.14 μL/min/mg/protein | 50 to 100 nM | –
12 | Cc1cc2nc(N[C@@H](C)c3cncc(F)c3)nc(C(=O)NCC[C@H]3CCNC3)c2s1 [Example Z463, 2-(((S)-1-(5-Fluoropyridin-3-yl)ethyl)amino)-6-methyl-N-(2-((R)-pyrrolidin-3-yl)ethyl)thieno[3,2-d]pyrimidine-4-carboxamide] | – | 10 to 50 nM | > 500 nM | – | – | – | – | > 500 nM | 4.85 μL/min/mg/protein | 159.87 | 48.47 μL/min/mg/protein | > 500 nM | –
13 | COc1ccc([C@@H](C)Nc2nc(C(=O)NCc3ccc(OC)nc3)c3sccc3n2)cc1 [Example Z465, (R)-2-((1-(4-Methoxyphenyl)ethyl)amino)-N-((6-methoxypyridin-3-yl)methyl)thieno[3,2-d]pyrimidine-4-carboxamide] | – | > 500 nM | 10 to 50 nM | – | – | – | – | > 500 nM | 35.20 μL/min/mg/protein | 0.22 | 75.91 μL/min/mg/protein | > 500 nM | –
14 | C[C@H](Nc1nc(C(=O)N2CC(NC(=O)C3CC3)C2)c2sccc2n1)c1cncc(F)c1 [Example Z517, (S)—N-(1-(2-((1-(5-Fluoropyridin-3-yl)ethyl)amino)thieno[3,2-d]pyrimidine-4-carbonyl)azetidin-3-yl)cyclopropanecarboxamide] | – | < 10 nM | 10 to 50 nM | – | – | – | – | > 500 nM | 6.17 μL/min/mg/protein | 4.68 | 16.99 μL/min/mg/protein | > 500 nM | –

Source: patent US11254686B1 (Corvus Pharmaceuticals, Inc., priority 2017, dated 2022)
